Source: patent publication US8669208B2, “Herbicidal benzoxazinones” (BASF SE, priority 2010, dated 2014)

Assays:
Assay type in all cases: in vivo
Abutilon theophrasti [1] = assay: greenhouse herbicidal test, pre-emergence treatment; details: pre-emergence method, application rate 50 g/ha; scale from 0 to 100
Source text: (§1) The seeds of the test plants were sown separately for each species. For the pre-emergence treatment, the active ingredients, which had been suspended or emulsified in water, were applied directly after sowing by means of finely distributing nozzles. The containers were irrigated gently to promote germination and growth and subsequently covered with transparent plastic hoods until the plants had rooted. This cover caused uniform germination of the test plants, unless this has been impaired by the active ingredients. Depending on the species, the plants were kept at 10-25° C. or 20-35° C. The test period extended over 2 to 4 weeks. During this time, the plants were tended, and their response to the individual treatments was evaluated. Evaluation was carried out using a scale from 0 to 100. 100 means no emergence of the plants, or complete destruction of at least the aerial moieties, and 0 means no damage, or normal course of growth. A good herbicidal activity is given at values of at least 70 and a very good herbicidal activity is given at values of at least 85. The plants used in the greenhouse experiments belonged to the following species: [table]

Amaranthus retroflexus = assay: as above; details: pre-emergence method, scale from 0 to 100, read-out: herbicidal activity against Amaranthus retroflexus; for pest or weed control at 50 g/ha: application rate 50 g/ha; for pest or weed control at 25 g/ha: application rate 25 g/ha
Source text: as §1

Chenopodium album = assay: as above; details: pre-emergence method, application rate 50 g/ha, scale from 0 to 100, read-out: herbicidal activity against Chenopodium album
Source text: as §1

Abutilon theophrasti [2] = assay: greenhouse herbicidal test, post-emergence treatment; details: post-emergence method, application rate 1000 g/ha; scale from 0 to 100
Source text: (§2) The seeds of the test plants were sown separately for each species. For the post-emergence treatment, the test plants were first grown to a height of 3 to 15 cm, depending on the plant habit, and only then treated with the active ingredients which had been suspended or emulsified in water. For this purpose, the test plants were either sown directly and grown in the same containers, or they were first grown separately as seedlings and transplanted into the test containers a few days prior to treatment. Depending on the species, the plants were kept at 10-25° C. or 20-35° C. The test period extended over 2 to 4 weeks. During this time, the plants were tended, and their response to the individual treatments was evaluated. Evaluation was carried out using a scale from 0 to 100. 100 means no emergence of the plants, or complete destruction of at least the aerial moieties, and 0 means no damage, or normal course of growth. A good herbicidal activity is given at values of at least 70 and a very good herbicidal activity is given at values of at least 85. The plants used in the greenhouse experiments belonged to the following species: [table]

Amaranthus palmeri = assay: as above; details: post-emergence method, application rate 12.5 g/ha; scale from 0 to 100
Source text: as §2

Kochia scoparia = assay: as above; details: post-emergence method, application rate 12.5 g/ha; scale from 0 to 100
Source text: as §2

Malva neglecta = assay: as above; details: post-emergence method, application rate 12.5 g/ha; scale from 0 to 100
Source text: as §2

Viola arvensis = assay: greenhouse herbicidal test, pre-emergence treatment; details: pre-emergence method, application rate 25 g/ha; scale from 0 to 100
Source text: as §1

Row | Compound | herbicidal activity against Abutilon theophrasti (Abutilon theophrasti [1]) | pest or weed control at 50 g/ha (Amaranthus retroflexus) [%] | pest or weed control at 50 g/ha (Chenopodium album) [%] | also measured
1 | C#CCN1C(=O)C(F)(F)Oc2cc(F)c(N3C(=O)[C@H]4C[C@H](F)CN4C3=O)cc21 [Example 2, (6S,7aR)-6-Fluoro-2-(2,2,7-trifluoro-3-oxo-4-prop-2-ynyl-3,4-dihydro-2H-benzo[1,4]-oxazin-6-yl)-tetrahydro-pyrrolo[1,2-c]imidazole-1,3-dione] | very good herbicidal activity (a very good herbicidal activity is given at values of at least 85) | ≥ 85 | ≥ 85 | –
2 | C#CCN1C(=O)C(F)(F)Oc2cc(F)c(-n3nc4n(c3=O)CCCC4)cc21 [Example 9] | very good herbicidal activity (a very good herbicidal activity is given at values of at least 85) | ≥ 85 | ≥ 85 | –
3 | C#CCN1C(=O)C(F)(F)Oc2cc(F)c(N3C(=O)OC(=C(C)C)C3=O)cc21 [Example 10] | very good herbicidal activity (a very good herbicidal activity is given at values of at least 85) | ≥ 85 | ≥ 85 | –
4 | C#CCN1C(=O)C(F)(F)Oc2cc(F)c(-n3nc(C)n(C(F)F)c3=O)cc21 [Example 11] | very good herbicidal activity (a very good herbicidal activity is given at values of at least 85) | ≥ 85 | ≥ 85 | –
5 | C#CCN1C(=O)C(F)(F)Oc2cc(F)c(-n3nc(C)nc3OC(F)F)cc21 [Example 12] | very good herbicidal activity (a very good herbicidal activity is given at values of at least 85) | ≥ 85 | ≥ 85 | –
6 | C#CCN1C(=O)C(F)(F)Oc2cc(F)c(/N=c3\snc4n3CC(C)(C)C4)cc21 [Example 13] | – | ≥ 85 | ≥ 85 | –
7 | C#CCN1C(=O)C(F)(F)Oc2cc(F)c(N3C(=O)CC(C)CC3=O)cc21 [Example 14] | very good herbicidal activity (a very good herbicidal activity is given at values of at least 85) | ≥ 85 | ≥ 85 | –
8 | C#CCN1C(=O)C(F)(F)Oc2cc(F)c(N3C(=O)c4ccc(F)cc4C3=O)cc21 [Example 15] | – | ≥ 85 | ≥ 85 | –
9 | C#CCN1C(=O)C(F)(F)Oc2cc(F)c(/N=c3\scc(C(F)(F)F)n3C)cc21 [Example 16] | – | ≥ 85 | ≥ 85 | –
10 | C#CCN1C(=O)C(F)(F)Oc2cc(F)c(N3C(=O)CC(=C(C)C)C3=O)cc21 [Example 17] | – | ≥ 85 | ≥ 85 | –
11 | Cn1nc(-c2cc3c(cc2F)OC(F)(F)C(=O)N3)cc1C(F)(F)F [Example 19] | – | – | – | herbicidal activity against Abutilon theophrasti (Abutilon theophrasti [2]): very good herbicidal activity (a very good herbicidal activity is given at values of at least 85)
12 | C#CCN1C(=O)C(F)(F)Oc2cc(F)c(-n3ncc(C(F)(F)F)c(C)c3=O)cc21 [Ia48, 2,2,7-Trifluoro-6-(5-methyl-6-oxo-4-trifluoromethyl-6H-pyridazin-1-yl)-4-prop-2-ynyl-4H-benzo[1,4]oxazin-3-one] | – | – | – | herbicidal activity against Amaranthus palmeri (Amaranthus palmeri): very good herbicidal activity (a very good herbicidal activity is given at values of at least 85); herbicidal activity against Kochia scoparia (Kochia scoparia): very good herbicidal activity (a very good herbicidal activity is given at values of at least 85); herbicidal activity against Malva neglecta (Malva neglecta): very good herbicidal activity (a very good herbicidal activity is given at values of at least 85); pest or weed control at 25 g/ha (Amaranthus retroflexus): ≥ 85%; herbicidal activity against Viola arvensis (Viola arvensis): very good herbicidal activity (a very good herbicidal activity is given at values of at least 85)
13 | C#CCN1C(=O)C(F)(F)Oc2cc(F)c(/N=c3\sc(=O)n4n3CCCC4)cc21 [If48] | very good herbicidal activity (a very good herbicidal activity is given at values of at least 85) | ≥ 85 | ≥ 85 | –
14 | C#CCN1C(=O)C(F)(F)Oc2cc(F)c(-n3nc(C(C)(C)C)oc3=O)cc21 [Ig48, 6-(5-tert-Butyl-2-oxo-[1,3,4]oxadiazol-3-yl)-2,2,7-trifluoro-4-prop-2-ynyl-4H-benzo[1,4]oxazin-3-one] | – | – | – | herbicidal activity against Amaranthus palmeri (Amaranthus palmeri): very good herbicidal activity (a very good herbicidal activity is given at values of at least 85); herbicidal activity against Kochia scoparia (Kochia scoparia): good herbicidal activity (A good herbicidal activity is given at values of at least 70); herbicidal activity against Malva neglecta (Malva neglecta): very good herbicidal activity (a very good herbicidal activity is given at values of at least 85); pest or weed control at 25 g/ha (Amaranthus retroflexus): ≥ 85%; herbicidal activity against Viola arvensis (Viola arvensis): very good herbicidal activity (a very good herbicidal activity is given at values of at least 85)
15 | C#CCN1C(=O)C(F)(F)Oc2cc(F)c(N3C(=O)C(=O)N(CCC)C3=S)cc21 [Ii48, 1-Propyl-2-thioxo-3-(2,2,7-trifluoro-3-oxo-4-prop-2-ynyl-3,4-dihydro-2H-benzo[1,4]oxazin-6-yl)-imidazolidine-4,5-dione] | – | – | – | herbicidal activity against Kochia scoparia (Kochia scoparia): very good herbicidal activity (a very good herbicidal activity is given at values of at least 85); herbicidal activity against Malva neglecta (Malva neglecta): very good herbicidal activity (a very good herbicidal activity is given at values of at least 85)
16 | C#CCN1C(=O)C(F)(F)Oc2cc(F)c(-n3c(=O)c4ccccc4n(C)c3=O)cc21 [Ik48, 1-Methyl-3-(2,2,7-trifluoro-3-oxo-4-prop-2-ynyl-3,4-dihydro-2H-benzo[1,4]oxazin-6-yl)-1H-quinazoline-2,4-dione] | – | – | – | herbicidal activity against Amaranthus palmeri (Amaranthus palmeri): very good herbicidal activity (a very good herbicidal activity is given at values of at least 85); herbicidal activity against Kochia scoparia (Kochia scoparia): very good herbicidal activity (a very good herbicidal activity is given at values of at least 85); herbicidal activity against Malva neglecta (Malva neglecta): very good herbicidal activity (a very good herbicidal activity is given at values of at least 85); pest or weed control at 25 g/ha (Amaranthus retroflexus): ≥ 85%; herbicidal activity against Viola arvensis (Viola arvensis): good herbicidal activity (A good herbicidal activity is given at values of at least 70)
